Some results are limits rather than exact numbers.

The text below walks through data of patent publication US12030896B2, “PIKfyve inhibitors” (Mayo Foundation for Medical Education and Research, priority 2018, dated 2024).

One data set relates to 468 kinases. As to the kind of experiment: Kinase selectivity panel (Treespot dendrogram). The class given is binding. The protocol: In contrast, 50 nM Apilimod inhibited two kinases to 1% or 10%, and 3 kinases to 35% of control. To examine non-specific binding at higher concentrations, Example 1, Example 3, and Apilimod were tested at 5000 nM. […] PIKfyve is represented at the bottom left of each dendrogram.

The subject of the next data set is IL12 and IL23. As to conditions: myeloid cells; cited from earlier work.
The conditions of data set [1]: oral; cited from earlier work.
The conditions of data set [2]: cited from earlier work.
In another data set the test system is cells in culture. As to the kind of experiment: Vacuolization activity in cells in culture. It is filed as cell-based. The source says:
(§1) As used herein the term “EC50 (μM)” refers to the μM concentration of a compound that is required for 50% activity in a vacuolization assay.
Example 2 is a biotinylated derivative of the compound of Example 1.

The test system of a further data set is U251. Put plainly: U251 Vacuolization Assay (24h). It is filed as cell-based. Conditions: Homo sapiens, U-251. The procedure:
as §1
Example A—U251 Vacuolization Assay Data (24h) for Compounds of Examples 8-56

Another data set has as its system U251 glioblastoma cell. As to the kind of experiment: Cell killing in combination with vemurafenib. The class given is cell-based, human. Conditions: 10 μM vemurafenib, 0 μM Example 1, 72 hour. The protocol: A 25 mM stock of vemurafenib (obtained from Selleckchem) in DMSO was diluted to 2× the indicated concentration into the cell suspension immediately prior to plating the cell suspension onto the pre-diluted Example 1 or Example 3, to result in a final 1× concentration of both compounds.
See FIG. 13 for showing of U251 glioblastoma cell killing by Example 1 alone or in the presence of 10 μM vemurafenib over a 72 hour time course.

With `Cc1cccc(/C=N/Nc2cc(N3CCOCC3)nc(OCCc3ccccn3)n2)c1` [Apilimod, 3-Methylbenzaldehyde 2-[6-(4-Morpholinyl)-2-[2-(2-pyridinyl)ethoxy]-4-pyrimidinyl]hydrazine], in the data set on 468 kinases (50 nM, 468 kinases), the “number of kinases blocked to 1% of control” value was “two”, the “number of kinases blocked to 10% of control” value is reported as “two” and the “number of kinases blocked to 35% of control” value is 3. Moreover, in the data set with 468 kinases (5000 nM), the “number of kinases blocked to 1% activity level” value stood at 4, the “number of kinases blocked to 10% activity level” value came out at 9 and the “number of kinases blocked to 35% activity level” value came out at 15. The “selectivity for PIKfyve” value in the data set with 468 kinases (comparison of Example 1, Example 3 and apilimod) was “less specific”. Further, the “IL12 and IL23 production” value with IL12 and IL23 is “suppresses”. Also, in data set [1], the “IFN-gamma production by ex vivo cells” value is “decreased”, the “TH1 / TH2 responses” value is given as “suppressed TH1 but not TH2 responses” and the “inflammatory histopathologic skin changes” value is “markedly reduced”. Further, the dose limiting toxicity in data set [2] (headache, flushing, hypoesthesia, dizziness, paresthesia) is 105 mg bid. Further, in data set [2] (oral, 70 mg qd), the “mean improvement in PASI score” value is 46% and the “patients with histologic improvement” value is recorded as 47%. Also, the “IL12 and IL23 expression in skin lesions” value in data set [2] (oral) was “significantly reduced”. In the case of `O=C(CCCC[C@@H]1SC[C@@H]2NC(=O)N[C@@H]21)Nc1ccc(Nc2nc(N/N=C/c3c[nH]c4ccccc34)nc(N3CCOCC3)n2)cc1` [Example 2, (E)-N-(4-((4-(2-((1H-indol-3-yl)methylene)hydrazinyl)-6-morpholino-1,3,5-triazin-2-yl)amino)phenyl)-5-(2-oxohexahydro-1H-thieno[3,4-d]imidazol-4-yl)pentanamide], a half-maximal effect in the data set with cells in culture (EC50) was put at 8 nM. Take `Cc1ccc(Nc2nc(N/N=C/c3ccccn3)nc(N3CCOCC3)n2)cc1` [Example 43, [4-Morpholin-4-yl-6-(N′-pyridin-2-ylmethylene-hydrazino)-[1,3,5]triazin-2-yl]-p-tolyl-amine]: the EC50 (in general, the concentration at which the effect is half-maximal) in the data set with U251 lay in the range of 1000 to 10000 nM. The same measure, in the same setting: the same measure for `Cc1ccc(Nc2nc(N/N=C/c3cc4ccccc4[nH]3)nc(N3CCOCC3)n2)cc1` [Example 44, {4-[N′-(1H-Indol-2-ylmethylene)-hydrazino]-6-morpholin-4-yl-[1,3,5]triazin-2-yl}-p-tolyl-amine]: 1000 to 10000 nM; for `Cc1ccc(Nc2nc(N/N=C/c3c[nH]c4ccccc34)nc(N3CCOCC3)n2)nc1` [Example 45, {4-[N′-(1H-Indol-3-ylmethylene)-hydrazino]-6-morpholin-4-yl-[1,3,5]triazin-2-yl}-(5-methyl-pyridin-2-yl)-amine]: not above 1000 nM; for `CS(=O)(=O)Nc1ccc(Nc2nc(N/N=C/c3c[nH]c4ccccc34)nc(N3CCOCC3)n2)cc1` [Example 46, (E)-N-(4-((4-(2-((1H-indol-3-yl)methylene)hydrazinyl)-6-morpholino-1,3,5-triazin-2-yl)amino)phenyl)methanesulfonamide]: not above 1000 nM.

On to `Cc1ccc(Nc2nc(N/N=C/c3c[nH]c4ccccc34)nc(N3CCc4ccccc4C3)n2)cc1` [Example 47, (E)-4-(2-((1H-Indol-3-yl)methylene)hydrazinyl)-6-(3,4-dihydroisoquinolin-2(1H)-yl)-N-(p-tolyl)-1,3,5-triazin-2-amine], for which, in the data set with U251, the EC50 is not above 1000 nM. On to `Cc1ccc(Nc2nc(N/N=C/c3c[nH]c4ccccc34)nc(N3CCOc4ccccc43)n2)cc1` [Example 48, (E)-4-(2-((1H-Indol-3-yl)methylene)hydrazinyl)-6-(2H-benzo[b][1,4]oxazin-4(3H)-yl)-N-(p-tolyl)-1,3,5-triazin-2-amine], for which, in the data set with U251, the EC50 is more than 50000 nM. In the data set on U251, `COC1CCN(c2nc(N/N=C/c3c[nH]c4ccccc34)nc(Nc3ccc(C)cc3)n2)CC1` [Example 49, (E)-4-(2-((1H-Indol-3-yl)methylene)hydrazinyl)-6-(4-methoxypiperidin-1-yl)-N-(p-tolyl)-1,3,5-triazin-2-amine] registered an EC50 of more than 50000 nM. The same measure, in the same setting: the figure for `Cc1ccc(Nc2nc(N/N=C/c3c[nH]c4ccccc34)nc(N3CCOCC3C)n2)cc1` (stereo not shown) [Example 50, (E)-4-(2-((1H-Indol-3-yl)methylene)hydrazinyl)-6-(3-methylmorpholino)-N-(p-tolyl)-1,3,5-triazin-2-amine] is not above 1000 nM.

The compound `COCCN(c1nc(N/N=C/c2c[nH]c3ccccc23)nc(Nc2ccc(C)cc2)n1)C(C)C` [Example 51, (E)-6-(2-((1H-Indol-3-yl)methylene)hydrazinyl)-N2-isopropyl-N2-(2-methoxyethyl)-N4-(p-tolyl)-1,3,5-triazine-2,4-diamine] came in with an EC50 in the data set on U251 of 1000 to 10000 nM. Compound `Cc1ccc(Nc2nc(N/N=C/c3c[nH]c4ccccc34)nc(N3C4CCC3COC4)n2)cc1` [Example 52, (E)-4-(2-((1H-Indol-3-yl)methylene)hydrazinyl)-6-(3-oxa-8-azabicyclo[3.2.1]octan-8-yl)-N-(p-tolyl)-1,3,5-triazin-2-amine] displayed an EC50 in the data set with U251 of 1000 to 10000 nM. Still for that read-out and setting: the same measure for `Cc1ccc(Nc2nc(N/N=C\c3coc4ccccc34)nc(N3CCOCC3)n2)cc1` [Example 53, 4-(2-(benzofuran-3-ylmethylene)hydrazinyl)-6-morpholino-N-(p-tolyl)-1,3,5-triazin-2-amine]: more than 50000 nM. Still for that read-out and setting: the same measure for `Cc1ccc(Nc2nc(NCCc3c[nH]c4ccccc34)nc(N3CCOCC3)n2)cc1` [Example 54, N2-(2-(1H-indol-3-yl)ethyl)-6-morpholino-N4-(p-tolyl)-1,3,5-triazine-2,4-diamine]: more than 50000 nM; for `C(=N\Nc1nc(Nc2cccc3ccccc23)nc(N2CCOCC2)n1)/c1c[nH]c2ccccc12` [Example 55, (E)-4-(2-((1H-indol-3-yl)methylene)hydrazinyl)-6-morpholino-N-(naphthalen-1-yl)-1,3,5-triazin-2-amine]: not above 1000 nM; for `Cc1[nH]c2ccccc2c1/C=N/Nc1nc(Nc2ccc([N+](=O)[O-])cc2)nc(N2CCCCCC2)n1` [Example 56, (E)-4-(azepan-1-yl)-6-(2-((2-methyl-1H-indol-3-yl)methylene)hydrazinyl)-N-(4-nitrophenyl)-1,3,5-triazin-2-amine]: more than 50000 nM. `CCCS(=O)(=O)Nc1ccc(F)c(C(=O)c2c[nH]c3ncc(-c4ccc(Cl)cc4)cc23)c1F` [vemurafenib, N-(3-(5-(4-chlorophenyl)-1H-pyrrolo[2,3-b]pyridine-3-carbonyl)-2,4-difluorophenyl)propane-1-sulfonamide, reference compound]: in the data set with U251 glioblastoma cell, the “effect on cell killing, alone” value is listed as “little effect”.
